# Experimental data: patent publication US9901646B2, “Methods for induction of antigen-specific immune tolerance” (École Polytechnique Fédérale de Lausanne (EPFL), priority 2010, dated 2018)
# 8‑arm PEG = 8-arm polyethylene glycol (PEG) dendrimer, conjugated via pyridyldisulfide groups to cysteine thiols
# Legend:
# circulating erythrocytes = experiment: 8-arm PEG constructs binding to circulating erythrocytes after intravenous injection, flow cytometry; assay type: in vivo, mouse
# Excerpt: FIG. 17 presents experimental results depicting erythrocyte cell-surface half-life of 8-arm PEG-ERY1 (filled circles) and 8-arm PEG-MIS (empty boxes), determined by flow cytometry.
# mouse erythrocytes [1] = experiment: 8-arm PEG constructs binding to erythrocytes in vitro, flow cytometry
# [2] = tested on: human epithelial 293T cells; experiment: Binding of bacteria displaying peptide to cells, flow cytometry; settings: peptide displayed on bacteria
# Protocol: (§1) Method: To characterize specificity, individual sequenced clones were analyzed using cytometry for binding toward human erythrocytes (type A and B), mouse erythrocytes, HEK293T cells and HUVECs. For binding assays, 10^6 mammalian cells were scanned on an AccuriA6 after co-incubation with 5×10^7 bacteria for 1 h at 4° C. followed by three washes in HFS (5% HSA, 2% FBS in PBS). The percentage of cells with green bacteria bound was calculated using FLOWJO Software.
# human endothelial HUVECs = experiment: as above; settings: peptide displayed on bacteria
# Protocol: as §1
# [3] = tested on: human erythrocytes (type A and B); experiment: as above; settings: peptide displayed on bacteria, 1 h at 4° C.
# Protocol: as §1
# OT-I CD8+ T cells [4] = experiment: OT-I tolerance and challenge model (Example 21); assay type: in vivo, mouse
# Protocol: 3×10^5 CFSE-labeled OT-I CD8^+ T cells were injected into CD45.1^+ recipient mice as described above. 1 and 6 d following adoptive transfer, mice were intravenously administered 10 μg of ERY1-OVA or OVA, or an equimolar dose of TER119-SIINFEKL in 100 μL, saline into the tail vein. 15 d following adoptive transfer, mice were challenged with 5 μg OVA and 25 ng ultra-pure Escherichia coli LPS (InvivoGen) in 25 μL intradermally into each rear leg pad (Hock method, total dose of 10 μg OVA and 50 ng LPS). Mice were sacrificed 4 d following challenge, and spleen and draining lymph node cells were isolated for restimulation. For flow cytometry analysis of intracellular cytokines, cells were restimulated in the presence of 1 mg/mL OVA or 1 μg/mL SIINFEKL peptide (Genscript) for 3 h. Brefeldin-A (Sigma, 5 μg/mL) was added and restimulation resumed for an additional 3 h prior to staining and flow cytometry analysis.
# (§2) The following anti-mouse antibodies were used for flow cytometry: CD1d Pacific Blue, CD3E PerCP-Cy5.5, CD8a PE-Cy7, CD45.2 Pacific Blue, IFNγ-APC, CD8a APC-eF780, (all from eBioscience), in addition to fixable live/dead dye (Invitrogen), and annexin-V-Cy5 labeling kit (BioVision). Samples were analyzed on a CyAn ADP flow cytometer (Beckman Coulter). Cells were washed first with PBS, stained for 20 min on ice with live/dead dye, blocked for 20 min on ice with 24G2 hybridoma medium, surface stained for 20 min on ice, fixed in 2% paraformaldehyde for 20 min ice, intracellularly stained in the presence of 0.5% saponin for 45 min on ice, followed by a final wash prior to analysis. For apoptosis staining, annexin-V-Cy5 was added 5 min prior to analysis.
# OT-I CD8+ T cells [5] = experiment: OT-I CD8+ T cell adoptive transfer, short-term proliferation study (Example 21); assay type: in vivo, mouse; settings: intravenous
# Protocol: CD8^+ T cells from OT-I (CD45.2^+) mouse spleens were isolated using a CD8 magnetic bead negative selection kit (Miltenyi Biotec) as per the manufacturer's instructions. Freshly isolated CD8^+ OT-I cells were resuspended in PBS and labeled with […] carboxyfluorescein succinimidyl ester (CFSE, Invitrogen) for 6 min at room temperature, and the reaction was quenched for 1 min with an equal volume of IMDM with 10% FBS (Gibco). Cells were washed, counted, and resuspended in pure IMDM prior to injection. 3×10^6 CFSE-labeled CD8^+ OT-I cells were injected intravenously into the tail vein of recipient CD45.1^+ mice. For short-term proliferation studies, 10 μg of ERY1-OVA or OVA, or an equimolar dose of TER119-SIINFEKL in 100 μL volume was injected 24 h following adoptive transfer. Splenocytes were harvested 5 d following antigen administration and stained for analysis by flow cytometry.
# as §2
# mouse erythrocytes [6] = experiment: scFv binding to erythrocytes, flow cytometry with anti-6×His-PE
# Protocol: FIG. 19 presents experimental results as a flow cytometry histogram. Mouse erythrocytes were incubated with TER119-SIINFEKL (grey filled histogram) or albumin (empty histogram). Fluorescent signal comes from the anti-6×His-PE antibody used in detection of the scFv.
# [7] = Prophylaxis study: tolerance towards wild-type asparaginase; assay type: in vivo, mouse; settings: re-administration / six challenges with wild-type asparaginase
# Protocol: A prophylaxis study was performed to determine if erythrocyte-binding asparaginase induced bona-fide immune tolerance towards wild-type asparaginase. Mice previously administered with wild-type clinical asparaginase were challenged with an additional dose following the onset of humoral immunity. […] On average, mice tolerized with erythrocyte-binding asparaginase developed approx. 6000-fold fewer antibodies towards clinical wild-type asparaginase.
# (§3) Desired dosages of ERY1-ASNase or ASNase were prepared in sterile 0.9% saline, and 100 μL of the solution was injected into the tail vein of anesthetized C57BL/6 mice. Blood was drawn at pre-determined time points either by cheek puncture or tail incisions.
# (§4) Anti-asparaginase antibody detection from serum method Serum from experimental groups was serially diluted into PBS and incubated for 2 h at RT on ASNase-coated ELISA plates. HRP-conjugated anti-mouse IgG (Southern Biotech) was used as the detection antibody.
# [8] = Immunogenicity of erythrocyte-bound versus wild-type asparaginase, serum IgG ELISA; assay type: in vivo, mouse; settings: 2-dose regimen, 15 μg i.v. every 2 days, up to 21 days following the final injection
# Protocol: A mouse erythrocyte-binding variant of asparaginase (ERY1-ASNase) was created by conjugating the mouse erythrocyte-specific peptide ERY1 (Kontos and Hubbell, 2010). To determine the immunogenicity of erythrocyte-bound versus wild-type asparaginase, a study was performed to evaluate to evaluate two regimens, namely exposure to a 2-dose and a 6-dose regimen of the ERY conjugate (ERY1-ASNase) or the native form (ASPARAGINASE MEDAC, Medac GmbH; which was also used as the raw material for the ERY1-ASNase conjugate). In each regimen, 15 μg of ERY1-ASNase or ASNase was administered intravenously every 2 days, and blood was drawn every 7 days.
# as §3, §4
# [9] = Cross-over study: reversal of pre-existing immunity towards asparaginase; assay type: in vivo, mouse; settings: 21 days following multiple intravenous doses two days apart
# Protocol: A cross-over study was performed to determine if erythrocyte-binding asparaginase could reverse immunity towards clinical asparaginase. Mice were intravenously administered multiple doses of wild-type asparaginase two days apart. […] Immunized mice were then therapeutically treated with erythrocyte-binding asparaginase regimens at varying doses. In both dosing regimens, ERY-conjugated asparaginase reduced antibody levels approx. 10-fold, thus reversing pre-existing humoral immunity
# as §3
# Serum from experimental groups was serially diluted into PBS and incubated for 2 h at RT on ASNase-coated ELISA plates. HRP-conjugated anti-mouse IgG (Southern Biotech) was used as the detection antibody.
# mouse erythrocytes [10] = experiment: TER119-ChrA binding to erythrocytes; settings: data not shown
# BDC2.5 CD4 T cells = experiment: Co-culture of BDC2.5 splenic dendritic cells and CD4 T cells, proliferation; assay type: cell-based, mouse; settings: co-culture with BDC2.5 splenic dendritic cells
# Excerpt: FIG. 24 is a plot of experimental results showing proliferation of CD4 T cells from the transgenic NODBDC2.5 mouse in co-culture with splenic DCs, with various media additives.
# To study T cell behavior towards the chromogranin-A antigen variants, the NODBDC2.5 transgenic mouse was used, which harbors T cells specific for the recognition of the chromogranin-A antigen.
# [11] = following challenge with OVA and LPS
# [12] = i.v. 1 and 6 days after adoptive transfer, 4 d after OVA/LPS challenge
molecule,measurement,setting,value
8-arm PEG-ERY1: fluorescent 8-arm PEG construct conjugated with ERY1 peptide by disulfide bond (H-WMVLPWLPGTLDGGSGC(8‑arm PEG)RG-NH2; also: Cys disulfide-linked to 8-arm PEG scaffold (fluorescent)),binding to circulating erythrocytes upon intravenous injection,circulating erythrocytes; flow cytometry,bind to circulating erythrocytes
same,cell-surface half-life on circulating erythrocytes,circulating erythrocytes; intravenous administration,2.2 h
same,time detected on circulating erythrocytes following intravenous administration,circulating erythrocytes; intravenous administration,5 h
same,binding to mouse erythrocytes following in vitro incubation,mouse erythrocytes [1],bind to mouse erythrocytes
GQSGQSWSRAILPLFKIQPVGSSGGS (Erythrocyte Binding Peptide) [ERY50],binding to epithelial 293T cells,[2],bound epithelial/endothelial cells
same,binding to endothelial HUVECs,human endothelial HUVECs,bound epithelial/endothelial cells
same,"binding to human erythrocytes, specificity as compared to 293T cells and HUVECs",[3],bound human erythrocytes
TER119-SIINFEKL: recombinant fusion of scFv TER119 to the MHC-I immunodominant domain of OVA (SGLEQLESIINFEKL; epitope),fewer IFNγ-expressing cells in lymph nodes compared to challenge control mice,OT-I CD8+ T cells [4]; [11],33 fold
same,fewer IFNγ-expressing cells in lymph nodes compared to mice treated with an equivalent dose of OVA,OT-I CD8+ T cells [4]; [11],over 14 fold
same,fewer OT-I CD8+ T cells in draining lymph nodes as compared to OVA-treated mice,OT-I CD8+ T cells [4]; [12],over 13 fold
same,fewer OT-I CD8+ T cells in draining lymph nodes than challenge control mice,OT-I CD8+ T cells [4]; [12],over 42 fold
same,PD-1+ proliferating OT-I CD8+ T cells compared to OVA,OT-I CD8+ T cells [5]; 10 μg or equimolar dose,much higher numbers
same,annexin-V+ proliferating OT-I CD8+ T cells compared to OVA,OT-I CD8+ T cells [5]; 10 μg or equimolar dose,much higher numbers
same,OT-I CD8+ T cell proliferation (CFSE dilution) compared to ERY1-OVA or OVA,"OT-I CD8+ T cells [5]; spleen, 5 days, dose equimolar to 10 μg OVA",markedly enhanced
same,binding to mouse erythrocytes,mouse erythrocytes [6],bound mouse erythrocytes
"asparaginase (protein, UniProt P00805 23-348, looked up, native asparaginase, Medac GmbH) L-asparaginase 2: LPNITILATGGTIAGGGDSATKSNYTVGKVGVENLVNAVPQLKDIANVKGEQVVNIGSQDMNDNVWLTLAKKINTDCDKTDGFVITHGTDTMEETAYFLDLTVKCDKPVVMVGAMRPSTSMSADGPFNLYNAVVTAADKASANRGVLVVMNDTVLDGRDVTKTNTTDVATFKSVNYGPLGYIHNGKIDYQRTPARKHTSDTPFDVSKLNELPKVGIVYNYANASDLPAKALVDAGYDGIVSAGVGNGNLYKSVFDTLATAAKTGTAVVRSSRVPTGATTQDAEVDDAKYGFVASGTLNPQKARVLLQLALTQTKDPQQIQQIFNQY",antibody response after challenge with wild-type asparaginase,[7],increased or remained high
same,asparaginase-specific antibody titers (immunogenicity),[8],induced vigorous immunity
same,anti-asparaginase antibodies in serum,[9],high levels of anti-asparaginase antibodies
TER119-ChrA: chromogranin-A mimotope 1040-p31 recombinantly fused to mouse erythrocyte-specific scFv TER119 (protein) scFv: EVKLQESGGGLVQPGGSLKLSCVASGFTFRDHWMNWVRQAPGKTMEWIGDIRPDGSDTNYAPSVRNRFTISRDNTRSILYLQMGNMRSDYTATYYCVRDSPTRAGLMDAWGQGTSVTVSSAGGGGSGGGGSGGGGSGGGGSDIQMTQSPSVLSASVGDRVTLNCKASQNINKYLNRYQQKLGEAPKVLVYNTNNLQTGIPSRFSGSGSGTDFTLTISSLQPEDFATYFCFQHYTWPTFGGVTKLEIKRTHHHHHHGGGYVRPLWVRME,binding to mouse erythrocytes,mouse erythrocytes [10],tightly bound mouse erythrocytes
same,"processing and display on MHC-II, priming of antigen-specific proliferation of BDC2.5 CD4 T cells in vitro",BDC2.5 CD4 T cells,efficiently processed
